Molecular target: T1, MMP-1 (Homo sapiens, UniProt P03956)
T1 construct: La proMMP-1 recombinante (75 ng/mL) est activée par l'APMA
T1 sequence (P03956 100-469): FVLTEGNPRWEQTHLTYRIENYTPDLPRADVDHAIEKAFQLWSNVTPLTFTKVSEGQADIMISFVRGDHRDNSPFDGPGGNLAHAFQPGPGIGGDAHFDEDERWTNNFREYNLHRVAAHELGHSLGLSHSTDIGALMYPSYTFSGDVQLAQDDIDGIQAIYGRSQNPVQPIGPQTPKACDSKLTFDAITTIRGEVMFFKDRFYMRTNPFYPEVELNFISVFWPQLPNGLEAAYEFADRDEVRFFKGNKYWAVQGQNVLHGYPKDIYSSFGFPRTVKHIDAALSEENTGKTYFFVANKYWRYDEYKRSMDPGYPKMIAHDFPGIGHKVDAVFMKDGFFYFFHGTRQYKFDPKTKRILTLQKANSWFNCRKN
Assay: MMP-1 activity on fluorescent synthetic substrate (FRET)
Format: biochemical
Excerpt: La mesure de l'activité enzymatique des MMPs est basée sur le principe du transfert d'énergie par résonance, RET ou transfert d'énergie de fluorescence par résonance, FRET. Le substrat est constitué d'un oligopeptide comportant un groupement fluorescent (F), donneur d'énergie et un groupement éteignant (Q, pour quenching), accepteur d'énergie. Après hydrolyse, le groupement éteignant est libéré, permettant de mesurer l'augmentation de fluorescence.
De nombreux couples fluorescent/éteignant ont été développés pour la mesure de l'activité enzymatique des MMPs comme le couple 7-méthoxycoumarine-4-acétyl (Mca)/dinitrophenyl-diaminopropionyl (Dnp).
Après activation, la MMP-1 est pré-incubée à +20°C pendant 10 minutes en absence ou en présence d'effecteurs dans un tampon Tris-HCl 50 mM, NaCl 150 mM, CaCl2 5 mM pH 7,5 en plaque 96 puits noire dont les sites de liaisons non-spécifiques ont été bloqués à l'aide d'une solution de SAB à 0,1% (p/v) dans le même tampon. La réaction est initiée par addition de 10 µL de substrat à la concentration finale de 2 µM dans un volume réactionnel final de 200 µL. Les variations de fluorescence (λ excitation : 360 nm, λ émission : 465 nm) au cours du temps sont suivies à l'aide d'un spectrofluorimètre lecteur de plaque HTS 7000+ à +20°C. La courbe représentant la fluorescence (en RFU) en fonction du temps (en minutes) est tracée.
Les intensités de fluorescence obtenues permettent d'estimer là vitesse initiale de l'enzyme en absence d'effecteur (V0) et en présence d'inhibiteur (Vi). […]
La proMMP-1 recombinante (75 ng/mL) est activée par l'APMA (Acide Phényl Mercurique Acétate). […] Le clivage de ce substrat est estimé par mesure de la fluorescence libérée (λexc = 360 nm; λem = 465 nm) à l'aide d'un spectrofluorimètre lecteur de plaques de type Perkin Elmer HTS 7000 Plus. Les intensités de fluorescence obtenues permettent d'estimer la vitesse initiale de l'enzyme en l'absence d'effecteur (Vo) et en présence d'inhibiteur (Vi). […]

`CCCCC/C=C\C/C=C\CCCCCCCCOC[C@H](CO[C@@H]1O[C@H](COC(=O)CCCCCCCCCCCCCCC)[C@H](O)[C@H](O)[C@H]1O)OCCCCCCCC/C=C\C/C=C\CCCCC` [ED23-11, 1,2-di-O-linoléyl-3-O-[6'-O-palmitoyl-β-D-galactopyranosyl]-sn-glycérol] was tested, and the inhibition at 25 µg/mL (25 µg/mL, read-out: Inhibition de MMP-1 (%)) was 42 ± 0.87%, the “Action sur l'activité de la MMP-1 (Vi/V0) à isoconcentration” value (at isoconcentration) was 168 and the “Augmentation d'activité” value (inhibition of type I collagenase, increase from one fractionation step to the next) was 2,72.

Reference: patent publication EP1733731A1, “New uses of Glycerol derivatives in particular in cosmetics” (AGRO INDUSTRIE RECHERCHES ET DEVELOPPEMENTS (A.R.D.), priority 2005, dated 2006)
